Results reported in publication PMC9834611 (Pharmacology Research & Perspectives, 2023).
Where two headings read alike, the source gives them in different places.

Assays:
[1] = in vitro; settings: female, CD-1, mouse, liver microsomes
[2] = cited from earlier work; for t1/2: Obs
[3] = VBL PK study in wild‐type and Mdr1a/b(−/−) mice, observed serum and tissue data; settings: female, mouse, iv, 2 mg/kg; for half-life: in vivo, 2 mg/kg IV, Obs
Method: Mouse protocols were approved by the Institutional Animal Care and Use Committee at Colorado State University. Two strains of mice were used: FVB female mice and Mdr1a/b (−/−) (knock‐out, KO) female mice in a FVB background (Taconic Biosciences, Inc) for a total of 15 mice per strain with three mice per time point. […] Whole blood and tissues were harvested throughout a time range of 0.08 to 6 h. Whole blood was collected with heparinized needles and transferred to a microcentrifuge tube and was spun at 1200xg for 10 min at 4°C. The resulting serum and tissues were flash‐frozen in liquid nitrogen and stored at −80°C until ready for analysis.
Serum samples (200μl) were spiked with 50 ng (10 μl of 5 μg/ml solution) of vincristine as an internal standard. […] During vortex mixing, solid‐phase extraction cartridges were prepared by the addition of 400 μl methanol followed by 400 μl milli‐Q water. Loaded samples were then washed twice with 5% methanol. […] Samples were then evaporated to dryness using a Savant AES 1000 SpeedVac. Samples were then resuspended in 100 μl of diluent and transferred to autosampler vials with glass inserts for injection onto the HPLC system.
Positive ion electrospray ionization (ESI) mass spectra were obtained with a MDS Sciex 3200 Q‐TRAP triple quadrupole mass spectrometer (Applied Biosystems Inc) with a turbo ionspray source interfaced to a Shimadzu HPLC system and an HTC‐PAL autosampler (Leap Technologies). Samples were chromatographed with an Agilent ZORBAX Rx/SB‐C 8 (4.6 × 75 mm) column (Agilent Technologies) protected by a C 18 guard cartridge, 4.0 mm by 2.0 mm (Phenomenex). An LC gradient was employed with mobile phase A consisting of 10 mM ammonium acetate pH 4.0 and mobile phase B consisting of acetonitrile. Chromatographic resolution was obtained by holding mobile phase B steady at 50% from 0 to 0.01 min, increasing linearly from 50% to […] from 0.01 to 3.0 min, holding steady at 99% from 3.0 to 4.5 min, decreasing linearly from 99% to 50% from 4.5 to 5.0 min, followed by equilibration at 50% from 5.0 to 6.0 min. The LC flow rate was 0.75 ml/min and the sample injection volume was 10 μl. The analysis run time was 6.0 min.
Analyst v1.5.1 software (Applied Biosystems) was used for peak area integration.
Plasma and tissue concentrations were measured at time intervals between […] and 6 h post‐drug administration. The mouse PBPK model for Mdr1a/b (−/−) mice and wild‐type mice was developed using SimBiology, MATLAB with a focus on the following tissues: plasma, brain, bone marrow, liver, gut, and kidney. The primary drivers of vinca disposition including tubulin binding, ABCB1‐mediated transport, and elimination via metabolism, biliary clearance, and glomerular filtration created the foundation of the model. Metabolism values were either derived experimentally or sourced from literature, while tissue partitioning and Michaelis–Menten parameters for ABCB1 transport and biliary excretion were optimized using plasma and tissue PK data.

[4] = test system: serum proteins; settings: cited from earlier work

For CC[C@]1(O)C[C@@H]2CN(CCc3c([nH]c4ccccc34)[C@@](C(=O)OC)(c3cc4c(cc3OC)N(C)[C@H]3[C@@](O)(C(=O)OC)[C@H](OC(C)=O)[C@]5(CC)C=CCN6CC[C@]43[C@@H]65)C2)C1 [VBL, Vinblastine], the Km at 5 min [1] is given as 11.6 µM, the t1/2 ([2]; Study 1: IV bolus 0.23 ± 0.08 mg/kg) is given as 10.99 h and the AUCt ([2]; Study 2: non‐small cell lung cancer, IV bolus 0.083 ± 0.009 mg/kg prior to Cisplatin infusion, n 8, Obs) is given as 163 ± 62 h x nM. For the same molecule, the t1/2 ([2]; Study 3: IV bolus 0.2 mg/kg) was 19.7 h, the AUCt ([2]; Study 3: metastatic hypernephroma, IV bolus 0.2 mg/kg, n 1, Obs) was 141 h x nM and the AUC ([3]; FVB (wild-type), brain) was 0.109 µM·h. It also gave an AUC ([3]; FVB (wild-type), gut) of 3.47 µM·h, a half-life ([3]; FVB (wild-type), t1/2, wild‐type mice, brain) of 3.94 h and a half-life ([3]; FVB (wild-type), t1/2, wild‐type mice, gut) of 1.27 h. For the same molecule, the half-life ([3]; FVB (wild-type), t1/2, wild‐type mice, kidney) was 1.56 h, the half-life ([3]; FVB (wild-type), t1/2, wild‐type mice, liver) was 1.32 h and the half-life ([3]; FVB (wild-type), t1/2, wild‐type mice, serum) was 1.6 h. For the same molecule, the AUC ([3]; FVB (wild-type), kidney) was 12.6 µM·h, the AUC ([3]; FVB (wild-type), liver) was 4.21 µM·h and the AUC ([3]; FVB (wild-type), serum) was 0.181 µM·h. For the same molecule, the AUC ([3]; FVB, bone marrow) was 2.98 µM·h, the AUC ([3]; Mdr1a/b (−/−) knock-out in FVB background, bone marrow) was 2.71 µM·h and the half-life ([3]; Mdr1a/b (−/−) knock-out in FVB background, t1/2, Mdr1a/b (−/−) mice, bone marrow) was 5.83 h. The half-life ([3]; Mdr1a/b (−/−) knock-out in FVB background, t1/2, Mdr1a/b (−/−) mice, liver) was 1.8 h, the AUC ([3]; Mdr1a/b (−/−) knock-out in FVB background, liver) was 4.27 µM·h and the AUC ([3]; Mdr1a/b (−/−) knock-out, FVB background, brain) was 1.4 µM·h. The AUC ([3]; Mdr1a/b (−/−) knock-out, FVB background, gut) was 5.9 µM·h, the half-life ([3]; Mdr1a/b (−/−) knock-out, FVB background, t1/2, Mdr1a/b (−/−) mice, gut) was 3.86 h and the half-life ([3]; Mdr1a/b (−/−) knock-out, FVB background, t1/2, Mdr1a/b (−/−) mice, kidney) was 1.79 h. The half-life ([3]; Mdr1a/b (−/−) knock-out, FVB background, t1/2, Mdr1a/b (−/−) mice, serum) was 1.62 h, the AUC ([3]; Mdr1a/b (−/−) knock-out, FVB background, serum) was 0.215 µM·h and the “bound to serum proteins” value ([4]; dog plasma) was at most 75%. For the same molecule, the “Protein binding (single value)” value ([4]; value used in dog model) was 75%, the “Protein binding (single value)” value ([4]; value used in human model) was 75% and the “Protein binding (single value)” value ([4]; value used in mouse model) was 75%.
